Assay results reported in a melting point compilation (Tetko et al.).

melting point [°C]	Compound
72 to 74	NS(=O)(=O)CC1CCCN1 (configuration not stated)
175 to 177	Cc1cc(C(=O)O)cc(C)c1OCC(=O)N1CCCCC1
241 to 243	Cc1cc(C(=O)CCl)c(C)n1-c1ccc(S(N)(=O)=O)cc1
132 to 136	CC1CCc2sc(C(=O)O)cc2C1 (configuration not stated)
201 to 203	CC(=O)c1c[nH]c(C(=O)O)c1
169 to 171	Nc1ncc(Br)cc1S(=O)(=O)N1CCCC1
78 to 82	Cc1cc(C(=O)C(C)Cl)c(C)n1-c1ccccc1 (configuration not stated)
124 to 126	COc1ccc(C2(C)NC(=O)N(NC(=O)CCl)C2=O)cc1 (configuration not stated)
97 to 99	CS(=O)(=O)CC1(CBr)CCOCC1
197 to 199	Cc1nc(COc2ccc(C(=O)O)cc2)no1
116 to 118	Cc1ccc(Oc2ncccc2C#N)c(Br)c1
154 to 156	O=C(O)CCS(=O)(=O)c1ccc2c(c1)OCCO2
169 to 171	O=Cc1ccnc2[nH]ccc12
192 to 194	NS(=O)(=O)c1ccc(NC(=O)OCC(F)(F)F)cc1
117 to 119	O=C1NCCNC1c1cccc(Br)c1 (configuration not stated)
184 to 186	Cc1nn(CCO)c2nc(C3CC3)cc(C(=O)O)c12
324 to 326	O=C(O)Cc1cc(=O)[nH]c(=O)[nH]1
44 to 46	O=C(O)C1CC2CCC1O2 (configuration not stated)
192 to 194	Oc1cccc(-c2nnc[nH]2)c1
313 to 315	Cc1nc(N)[nH]c(=O)c1CC(=O)O
73 to 75	O=S(=O)(Cl)Cc1c(F)cccc1F
110 to 112	Nc1cccn(Cc2ccc(F)cc2)c1=O
47 to 49	CC(C)(C)OC(=O)Cc1cccc(N)c1
82 to 84	CCC(=O)Nc1ccc(N)cc1

melting point [°C]	Compound
173 to 175	Cc1c(N)cccc1C(N)=O
98 to 100	CC(C)C(Br)C(=O)Nc1ccccc1F (configuration not stated)
146 to 148	O=C(Nc1ncccn1)C1CCNCC1
104 to 106	COC(=O)CNc1ccncc1[N+](=O)[O-]
80 to 82	O=C(c1ccc(Cl)cc1)N1CCNCC1
134 to 136	CNc1c(F)cccc1C(=O)O
82 to 84	O=C(NCC1CCCNC1)c1ccccc1 (configuration not stated)
239 to 241	Cc1nc(C(=O)O)c[nH]1
158 to 160	CC(C)(C)n1c(N)nc2ccccc21
179 to 181	Cc1c(F)cc(C(=O)O)cc1S(=O)(=O)Cl
59 to 61	CC1CN(C(CN)c2c(F)cccc2F)CC(C)O1 (configuration not stated)
238 to 240	COc1ccc(C=CC(=O)O)cc1S(=O)(=O)N1CCOCC1
194 to 196	Cc1cc(S(=O)(=O)Cl)sc1C(=O)O
104 to 106	Clc1ccc(-c2nnc(CNC3CC3)o2)cc1
117 to 119	Clc1ccc2nnc(C3CC3)n2n1
172 to 174	O=C1CCCN1Cc1nnc(S)o1
138 to 140	COc1cc(NC(C)=O)ccc1I
95 to 97	Cn1nc(Br)c(=O)n(C)c1=O
104 to 106	c1cc(-n2ccnc2)ccn1
184 to 186	O=C(O)c1ccc(S)cc1Cl
124 to 126	NC(=O)C1CCCN(C(=O)CCl)C1 (configuration not stated)
153 to 155	CCC(CO)NC(=O)c1ccc(N)cc1 (configuration not stated)
47 to 49	CCOc1ccc(S(=O)(=O)Cl)cn1
169 to 171	COc1ccccc1S(N)(=O)=O

melting point [°C]	Compound
94 to 96	CC(=O)NCCc1ccc(C(C)=O)cc1
64 to 66	Cc1cc(O)c(C=O)cc1C
249 to 251	Cc1sc2[nH]c(CCC(=O)O)nc(=O)c2c1C
75 to 77	Clc1nccc2ccn(Cc3ccccc3)c12
147 to 149	Cc1cc(Cl)nc(-c2cccc([N+](=O)[O-])c2)n1
150 to 152	Nc1nc(-c2ccccc2)c(-c2ccccc2)o1
141 to 143	CCOC(=O)/C(C#N)=C/Nc1ccccc1OCC
199 to 201	O=C(O)c1cnn2cc(Br)cnc12
119 to 121	Cc1cc(C#N)ccc1NC1CCC(O)CC1 (configuration not stated)
88 to 90	CCC(C)C(=O)NN (configuration not stated)
119 to 121	Cc1cn(-c2ccccc2)nc1N
118 to 120	CSC=CC(=O)O
139 to 141	O=C(O)c1cn(-c2cccc(Cl)c2F)nn1
359 to 361	N#Cc1c[nH]c2ccc(Br)cc2c1=O
75 to 77	CC1Cc2ccccc2N1C(=O)CO (configuration not stated)
123 to 125	Cc1cccnc1NC(=O)C1CCCNC1 (configuration not stated)
119 to 121	CC(C)CCNS(=O)(=O)c1ccc(N)cc1
148 to 150	CC1=NN(c2ccc(F)cc2)C(=O)C1
149 to 151	CCc1c(C)nn(-c2cccc(C(=O)O)c2)c1C
198 to 200	CCOc1ccc(-c2nnc(SC(F)F)n2CCC(=O)O)cc1
134 to 136	S=C1NC2CCCCC2N1 (configuration not stated)
155 to 158	CS(=O)(=O)Nc1ccc(C(=O)CCl)cc1
126 to 128	C#CCS(=O)(=O)CCNC(=O)OC(C)(C)C
67 to 69	N#CC1(N)CCN(Cc2ccccc2)CC1

melting point [°C]	Compound
50 to 52	COC(=O)c1ccc(F)c(CBr)c1
244 to 246	Cc1ccc2nc(-c3cccc(C)c3O)[nH]c2c1
112 to 114	O=Cc1ccc(-c2ccccc2[N+](=O)[O-])s1
144 to 146	CC(C)(C)OC(=O)NCC(C(=O)O)c1ccccc1 (configuration not stated)
70 to 72	OCc1ccc(Br)cc1Cl
122 to 124	Brc1cnc(NCc2ccncc2)nc1
136 to 138	CC(C)c1sc(NC(=O)CCl)nc1-c1ccccc1
229 to 231	Nc1nc2cc(Cl)ccc2n1CCCn1ccnc1
279 to 281	Nc1cc(=O)[nH]c(=O)n1Cc1ccc(Cl)cc1
137 to 139	N#Cc1ccc(CCC(=O)O)cc1
95 to 97	COc1ccc(C2(C(=O)O)CCC2)cc1
165 to 167	Nc1nnc(CCCc2ccccc2)o1
179 to 181	O=C(O)c1ccc(Oc2ccc(F)cc2[N+](=O)[O-])cc1
49 to 51	OCc1ccn(-c2ccccc2)n1
164 to 166	O=C1CC(C(=O)O)CCN1 (configuration not stated)
177 to 179	CSc1ccc(C=CC(=O)O)cc1
173 to 175	O=C(Nc1cccc(Cn2cccnc2=O)c1)OCC(F)(F)F
102 to 104	CCOc1ccc(-c2nc(CCl)co2)cc1
112 to 114	CCNS(=O)(=O)c1ccc(I)cc1
89 to 91	CCOC(=O)c1oc2ccc(Br)cc2c1C
153 to 155	Cc1ccccc1-c1nn[nH]n1
149 to 151	NCc1cc(C(N)=O)no1
69 to 71	CCc1nonc1N
159 to 161	COCCSc1ccc([N+](=O)[O-])cc1C(=O)O

melting point [°C]	Compound
218 to 220	Cc1c(C(=O)O)cccc1S(N)(=O)=O
58 to 60	C=CCOc1ccc(C(F)(F)F)cc1C(=O)O
159 to 161	Cc1oc(Cn2cc(Br)cn2)cc1C(=O)O
223 to 225	Nc1nncc(-c2ccc(OC(F)F)cc2)n1
179 to 181	Cn1cnnc1SCc1ccc(C(=O)O)o1
154 to 156	Cc1cc(Br)cc(Cl)c1C(=O)O
163 to 165	CN(C)C(=O)Cn1cc(Br)cn1
98 to 100	CC(C)NS(=O)(=O)c1cccc(CN)c1
35 to 37	O=C1CCCC1c1ccccc1 (configuration not stated)
152 to 154	Nc1ccc(S(N)(=O)=O)c(F)c1
203 to 205	O=C1NCc2ccc(F)cc21
79 to 81	Clc1c[nH]c2ccccc12
110 to 112	O=C(CCl)NCc1cnn(-c2ccccc2)c1
86 to 88	Cc1ccc(Sc2ccc(Cl)cc2N)c(C)c1
229 to 231	Nc1cccc(N2CCCNC2=O)c1
117 to 119	O=Cc1sc(N2CCCCC2)nc1-c1cccs1
119 to 121	NN=c1ncc(F)c[nH]1
174 to 176	CN(C)S(=O)(=O)c1ccc(Br)c(C(=O)O)c1
99 to 101	O=C(O)c1ccnc(N2CCCCC2)n1
269 to 271	Cc1nn(C)c2sc(C(=O)NC(C)C(=O)O)cc12 (configuration not stated)
268 to 272	Nc1nc(=O)cc[nH]1
148 to 150	Cc1[nH]oc(=N)c1-c1cccc(Cl)c1
254 to 256	CC(NC(=O)CCn1cncn1)C(=O)O (configuration not stated)
159 to 161	COC(=O)c1n[nH]c2ccccc12

melting point [°C]	Compound
128 to 130	COC(=O)c1[nH]c(C)cc1N
119 to 121	O=C(CCl)Nc1cc(-n2nnnc2C2CC2)ccc1F
103 to 105	O=C(CCl)NCC(=O)c1ccccc1Br
84 to 86	O=C(O)c1ccccc1OCCOc1ccccc1
239 to 241	CC(C)Cc1nnc(N)s1
178 to 180	COC(=O)Cc1c(C(=O)OC)sc(N)c1C(=O)OC
147 to 149	O=Cc1cnc(N2CCOCC2)nc1
148 to 150	CC(C)C(O)(C(=O)O)c1ccccc1 (configuration not stated)
204 to 206	O=C(O)c1csc(-c2ccc(Cl)cc2Cl)n1
83 to 87	COc1cc(/C=C/C(=O)O)ccc1OC(C)C
102 to 104	NC(=S)C1CCOC1 (configuration not stated)
74 to 76	Cc1cc(Br)ccc1CO
30 to 32	CCCc1ccc(C(=O)CCl)cc1
139 to 141	O=C(NCC(F)(F)F)c1ccc(S(=O)(=O)Cl)cc1
126 to 128	O=[N+]([O-])c1cc(Cl)cc(Br)c1O
156 to 158	NC(=S)Nc1ccccc1OC(F)(F)F
43 to 45	CNCc1c(Cl)ncnc1N(C)C
96 to 98	CC(C)S(=O)(=O)C(C)C(=O)O (configuration not stated)
97 to 99	CS(=O)(=O)c1ccc(C2CO2)cc1 (configuration not stated)
242 to 244	Cn1c(=O)[nH]c2ccccc2c1=O
162 to 164	COc1cc(C(=O)O)ccc1OCC(=O)N1CCOCC1
147 to 149	Cc1cc(C)c2c(N)c(C(=O)N3CCOCC3)sc2n1

Compound	melting point [°C]
COc1cc(CN2CCNCC2)cc(OC)c1OC	102 to 104
BrCc1cc(Br)c2c(c1)OCO2	123 to 125
NC(=O)C1(Br)CCC1	150 to 152
O=[N+]([O-])c1cc([N+](=O)[O-])c(Br)cc1F	92 to 94
O=C1OCCN1S(=O)(=O)Cl	94 to 96
